Reference: patent US20180311124A1, “CLIMBAZOLE MICROCAPSULE AND HAIR CARE COMPOSITION COMPRISING SURFACTANT AND CLIMBAZOLE” (priority 2015, published 2018)
Read-outs that look alike come from different tables or passages of the source.

Key:
[1] = tested on: M. Furfur; test: ZOI test comparing with PS latex (Example 5); assay type: cell-based, Malassezia furfur; conditions: ruptured by rubbing; 1 g shampoo of table 3 diluted with 3.9 g water and 0.1 g model sebum
Experimental: Zone of Inhibition (ZOI) Method • 1. L&N agar plates were appropriately labelled. • 2. 0.25 ml or 1 ml of quarter strength inoculum was pipetted onto the surface of each plate. • 3. The inoculum was spread evenly over the whole surface of the plates using a sterile spreader. • 4. Filter paper discs were added, in triplicate to the control plate and plates labelled 1 to 5 unruptured and left for 30 minutes in order to soak up any moisture from the agar. • 5. 15 μl of each (diluted, unruptured) formulation were pipetted onto each of the 3 discs in the appropriate agar plate. The liquid was allowed to soak into the disc. • 6. An additional disc was placed over the original discs in the control and 1 to 5 unruptured plates and the liquid allowed to soak into the additional discs. • 7. The discs from the previously ruptured samples were added in triplicate to separate Leeming and Notman agar plates and allowed to absorb moisture from the plates. • 8. […] Any zone of inhibition observed was measured and recorded.
The efficacy of climbazole microcapsules on the growth of M. Furfur measured using Zone of Inhibition (ZOI) when the microcapsules had been ruptured by simple rubbing to simulate hair washing was tested both for the solvent containing core shell microcapsules according to the invention and the latex particles according to the prior art. […]

[2] = manufacturer's published literature; cited from earlier work
[3] = Screen of perfume components, perfume mixtures and oils for ability to solubilise climbazole
Description: A number of perfume components, perfume mixtures and oils considered to be safe to use on scalp were screened to evaluate their ability to solubilise climbazole. Because emulsion polymerisation also encapsulates the solvent an efficient solvent is needed to get a high loading of climbazole into a microcapsule.

## CC(C)(C)C(=O)C(Oc1ccc(Cl)cc1)n1ccnc1 (racemic) [climbazole, (RS)-1-(4-Chlorophenoxy)-1-imidazol-1-yl-3,3-dimethylbutan-2-one]
[1]
  Ruptured mean ZOI (mm): 1.00^1 mm
[2]
  solubility: soluble in alcohol, glycols, surfactants and certain perfume oils

## CC(=O)OCc1ccccc1 [Benzyl Acetate]
[3]
  ratio of solvent to climbazole: 5:1

## CCOC(=O)C=Cc1ccccc1 [Ethyl Cinnamate]
[3]; solvent screened at the solvent:climbazole ratios tested
  ability to solubilise climbazole: failed to solubilise it at any ratio tested

## CC(O)CO (stereo not drawn) [propylene glycol]
[3]
  ability to solubilise climbazole: failed to solubilise it at any ratio tested

## Coconut oil
[3]
  ability to solubilise climbazole: failed to solubilise it at any ratio tested
